Experimental data: US8679459B2, “B ring reduced-D ring oxidized tetrapyrrolic photosensitizers for photodynamic therapy and tumor imaging” (Health Research, Inc., priority 2008, dated 2014)

Assays:
[1] = tested on: Colon-26 cells; experiment: In vitro photosensitizing efficacy (MTT assay); type: cell-based; conditions: for PDT efficacy compared to the free base analogs: In(III) complex vs. free base; for in vitro photosensitizing efficacy among all the compounds tested (fraction survival vs. light dose): 24 h incubation, light 0-2 J/cm^2, MTT
Procedure: In graphs A-E, Y=fraction surviving and X=Light dose in J/cm^2. The numbers in the legends refer to compound number in FIGS. 7-12.
In vitro Photosensitizing Efficacy (MTT Assay]: Colon-26 cells were grown in α-DMEM with 10% fetal calf serum, and penicillin and streptomycin. Cells were maintained in 5% CO2 and 95% air at 100% humidity. For phototoxicity studies, cells were placed in 96-well plates at a density of 5×10^4 cells/well, in complete medium. 24 h later, compounds were added at variable concentration. After 24 incubation in the dark at 37° C., the cells were irradiated with a laser light from an argon pumped dye laser using flunces of 0-2 J/cm^2 at a dose of 5.6 mW/cm^2. After PDT, the cells were washed once, placed in complete medium, and incubated for 48 h. Cells were incubated with 10 μL/well of 4 mg/mL MTT for the final 4 h. The MTT-containing medium was removed, and 100 μL DMSO was added to solubilize the formazan crystals. The absorbance of the wells was read on a microtiter plate reader at a wavelength of 560 nm.^10 The results were plotted as fraction survival vs. the light dose used at the same concentrations. […] These compounds are currently being evaluated for in vivo efficacy, where the pharmacokinetic and the pharmacodynamic properties of the molecules will have a significant impact in efficacy.

[2] = earlier work; cited from earlier work

Compound	PDT efficacy compared to the free base analogs [1]	PDT activity among alkyl ether analogs of pyropheophorbide-a [2]	in vitro photosensitizing efficacy among all the compounds tested (fraction survival vs. light dose) [1]
CCCCCCOC(C)c1c(C)/c2[n]3/c1=C\C1=NC(=C\c4c(C)c5c([n]4[In]3[Cl])/C(=C3N=C(\C=2)C(C)=C\3CCC(=O)OC)CC5=O)/[C@H](CC)[C@H]1C (some centres unmarked) [compound 24]	enhanced PDT efficacy		
3-(1-hexyloxyethyl)-3-devinyl-pyropheophorbide-a [compound 3a]		most effective	
CC[C@H]1/C2=C/c3c(C)c4c5[n]3[In]([Cl])[n]3/c(c(C)c(C(C)=O)/c3=C/C(=N2)[C@@H]1C)=C\C1=NC(=C\5CC4=O)/C(CCC(=O)OC)=C1C [compound 22]	enhanced PDT efficacy		most effective
CC[C@H]1/C2=C/c3c(C)c4c5[n]3[In]([Cl])[n]3/c(c(C)c(C(C)=O)/c3=C/C(=N2)[C@@H]1C)=C\C1=NC(=C\5CC4=O)/[C@@H](CCC(=O)OC)[C@@H]1C [compound 23]			most effective
